Results on 18 compounds are retold here after US20250051347A1, “BIFUNCTIONAL CHIMERIC HETEROCYCLIC COMPOUND AND USE THEREOF AS ANDROGEN RECEPTOR DEGRADER” (Hinova Pharmaceuticals, Inc., priority 2021, published 2025).

Bounds are passed on as bounds.

In the first assay the target is T1, androgen receptor (AR) splicing variant AR-v7 (Homo sapiens, UniProt P10275).
T1 construct: The degradation activity of compounds on AR-v7 in 22RV1 cells; host or cells: 22RV1 cells
T1 sequence (P10275 1-644 isoform P10275-3): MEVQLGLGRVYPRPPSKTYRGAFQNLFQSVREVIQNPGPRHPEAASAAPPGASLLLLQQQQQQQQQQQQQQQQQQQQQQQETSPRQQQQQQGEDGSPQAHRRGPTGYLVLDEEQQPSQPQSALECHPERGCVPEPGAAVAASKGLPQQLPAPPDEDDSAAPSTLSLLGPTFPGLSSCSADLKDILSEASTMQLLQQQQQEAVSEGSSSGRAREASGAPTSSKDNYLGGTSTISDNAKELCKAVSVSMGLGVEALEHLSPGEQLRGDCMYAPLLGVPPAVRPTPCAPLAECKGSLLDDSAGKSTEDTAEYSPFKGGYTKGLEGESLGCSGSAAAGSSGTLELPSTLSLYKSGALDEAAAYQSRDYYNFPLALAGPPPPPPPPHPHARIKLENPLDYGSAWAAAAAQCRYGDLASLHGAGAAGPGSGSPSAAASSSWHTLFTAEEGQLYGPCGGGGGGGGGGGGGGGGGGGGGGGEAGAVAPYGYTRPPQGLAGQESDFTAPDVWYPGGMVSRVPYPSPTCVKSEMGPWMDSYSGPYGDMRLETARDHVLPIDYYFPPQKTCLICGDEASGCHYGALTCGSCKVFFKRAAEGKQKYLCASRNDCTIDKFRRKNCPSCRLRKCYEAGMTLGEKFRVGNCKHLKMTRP
The assay can be described thus: Degradation activity on androgen receptor splicing variant AR-v7 in 22RV1 cells (ELISA). The class given is cell-based. To be noted: AR-v7 degradation in 22RV1 cells, 48 h, class symbols. Here is the method:
The degradation activity of the compound of the present invention on the androgen receptor splicing variant AR-V7 was analyzed using enzyme-linked immunosorbent assay (ELISA).
The plate was cultured in a 5% CO2 cell incubator at 37° C. for 2 days until the cells adhered to the wall. • 2) The drug was prepared into 10 mM stock solution with dimethylsulfoxide (DMSO). […] The plate was gently shaken and mixed. In addition, negative control wells (only containing culture medium) and positive control wells (only containing cells and DMSO) were set. • 3) After the cells were cultured in an incubator for 48 h, the medium was removed and the cells were rinsed once with ice cold PBS. Then, ice-cold 1× cell lysis buffer was added to each well of the cell culture plate. After the plate was incubated on ice for 15 min, the plate was tapped to mix. • 4) The supernatant of the cell lysate was transferred from the cell culture plate to a […] plate for ELISA. • 5) The newly prepared Capture antibody (green) was mixed with the newly prepared HRP-labeled antibody (red), and then the antibody mixture was added to the above 96-well ELISA plate. • 6) The ELISA plate was sealed with plastic film, and then incubated in a 25° C. incubator for 1 h. • 7) The washing buffer was added to each well, and then TMB substrate was added to each well of the ELISA plate. Subsequently, the plate was cultured in an incubator at 37° C. for 5 min. • 8) 100 μl of stop solution was added to each well of the ELISA plate, and the plate was gently tapped for several seconds. The absorbance was read at 450 nm within 30 min. The data were analyzed by the Dose-response equation in the software GraphPad Prism8, to obtain DC50 and Dmax values.
For orientation: ELISA stands for enzyme-linked immunosorbent assay.
Regarding `CC(C)(c1ccc(OCCCOCCCOCCCNc2ccc3c(c2)C(=O)N(C2CCC(=O)NC2=O)C3=O)cc1)c1ccc(OCc2ccnc(NS(C)(=O)=O)n2)cc1` (stereo not drawn) [Example 20, N-(4-((4-(2-(4-(3-(3-(3-((2-(2,6-dioxopiperidin-3-yl)-1,3-dioxoisoindolin-5-yl)amino)propoxy)propoxy)propoxy)phenyl)propan-2-yl)phenoxy)methyl)pyrimidin-2-yl)methanesulfonamide], the DC50 (as a rule, the concentration giving 50% degradation) was in the range of 1 to 5 µM.

The compound `CC(C)(c1ccc(OCCCCCCCCOCCCCNc2ccc3c(c2)C(=O)N(C2CCC(=O)NC2=O)C3=O)cc1)c1ccc(OCc2ccnc(NS(C)(=O)=O)n2)cc1` (stereo not drawn) [Example 22, N-(4-((4-(2-(4-((8-(4-((2-(2,6-dioxopiperidin-3-yl)-1,3-dioxoisoindolin-5-yl)amino)butoxy)octyl)oxy)phenyl)propan-2-yl)phenoxy)methyl)pyrimidin-2-yl)methanesulfonamide] showed a DC50 of 0.101 to 1 µM.

For `CC(C)(c1ccc(OCCCCCCCOCCCOCCCNc2cccc3c2C(=O)N(C2CCC(=O)NC2=O)C3=O)cc1)c1ccc(OCc2ccnc(NS(C)(=O)=O)n2)cc1` (stereo not drawn) [Example 23], the DC50 is 1 to 5 µM.

With `CC(=O)Nc1nccc(COc2ccc(C(C)(C)c3ccc(OCCCCCCCCOCCCCNc4ccc5c(c4)C(=O)N(C4CCC(=O)NC4=O)C5=O)cc3)cc2)n1` (stereo not drawn) [Example 26, N-(4-((4-(2-(4-((8-(4-((2-(2,6-dioxopiperidin-3-yl)-1,3-dioxoisoindolin-5-yl)amino)butoxy)octyl)oxy)phenyl)propan-2-yl)phenoxy)methyl)pyrimidin-2-yl)acetamide], the half-maximal degradation concentration (DC50) lay in the range of 1 to 5 µM.

Compound `CC(C)(c1ccc(OCCCCCCCCOCCCCNc2ccc3c(c2)C(=O)N(C2CCC(=O)NC2=O)C3=O)cc1)c1ccc(OCc2cccc(NS(C)(=O)=O)n2)cc1` (stereo not drawn) [Example 33, N-(6-((4-(2-(4-((8-(4-((2-(2,6-dioxopiperidin-3-yl)-1,3-dioxoisoindolin-5-yl)amino)butoxy)octyl)oxy)phenyl)propan-2-yl)phenoxy)methyl)pyridin-2-yl)methanesulfonamide] gave a 50% degradation concentration (DC50) of 0.101 to 1 µM.

`CC(C)(c1ccc(OCCCNc2ccc3c(c2)C(=O)N(C2CCC(=O)NC2=O)C3=O)cc1)c1ccc(OCc2ccnc(NS(C)(=O)=O)n2)cc1` (stereo not drawn) [Example 37, N-(4-((4-(2-(4-(3-((2-(2,6-dioxopiperidin-3-yl)-1,3-dioxoisoindolin-5-yl)amino)propoxy)phenyl)propan-2-yl)phenoxy)methyl)pyrimidin-2-yl)methanesulfonamide] showed a DC50 of 1 to 5 µM.

The same assay, now with this note: AR-v7 degradation in 22RV1 cells, 48 h, numeric values.
With `CC(C)(c1ccc(OCCCCCCCCOCCCCNc2cccc3c2C(=O)N(C2CCC(=O)NC2=O)C3=O)cc1)c1ccc(OCc2ccnc(NS(C)(=O)=O)n2)cc1` (stereo not drawn) [Example 21, N-(4-((4-(2-(4-((8-(4-((2-(2,6-dioxopiperidin-3-yl)-1,3-dioxoisoindolin-4-yl)amino)butoxy)octyl)oxy)phenyl)propan-2-yl)phenoxy)methyl)pyrimidin-2-yl)methanesulfonamide], the half-maximal degradation concentration (DC50) came to 5.77 µM. In other words, the single-digit micromolar range.

Compound `CC(C)(c1ccc(OCCCCCCCOCCCOCCCNc2ccc3c(c2)C(=O)N(C2CCC(=O)NC2=O)C3=O)cc1)c1ccc(OCc2ccnc(NS(C)(=O)=O)n2)cc1` (stereo not drawn) [Example 24] registered a half-maximal degradation concentration (DC50) above 10 µM.

`CN(c1nccc(COc2ccc(C(C)(C)c3ccc(OCCCCCCCCOCCCCNc4ccc5c(c4)C(=O)N(C4CCC(=O)NC4=O)C5=O)cc3)cc2)n1)S(C)(=O)=O` (stereo not drawn) [Example 25, N-(4-((4-(2-(4-((8-(4-((2-(2,6-dioxopiperidin-3-yl)-1,3-dioxoisoindolin-5-yl)amino)butoxy)octyl)oxy)phenyl)propan-2-yl)phenoxy)methyl)pyrimidin-2-yl)-N-methyl methanesulfonamide] showed a DC50 above 10 µM.

`CC(C)(c1ccc(OCCCCCCCCOCCCCNc2ccc3c(c2)C(=O)N(C2CCC(=O)NC2=O)C3=O)cc1)c1ccc(OCc2ccnc(N3CCCS3(=O)=O)n2)cc1` (stereo not drawn) [Example 27, 5-((4-((8-(4-(2-(4-((2-(1,1-dioxoisothiazolidin-2-yl)pyrimidin-4-yl)methoxy)phenyl)propan-2-yl)phenoxy)octyl)oxy)butyl)amino)-2-(2,6-dioxopiperidin-3-yl)isoindolin-1,3-dione] registered a half-maximal degradation concentration (DC50) of 7.58 µM.

For the compound `CC(C)(c1ccc(OCCCCCCCCOCCCCNc2ccc3c(c2)C(=O)N(C2CCC(=O)NC2=O)C3=O)cc1)c1ccc(OCc2ccnc(N)n2)cc1` (stereo not drawn) [Example 28, 5-((4-((8-(4-(2-(4-((2-aminopyrimidin-4-yl)methoxy)phenyl)propan-2-yl)phenoxy)octyl)oxy)butyl)amino)-2-(2,6-dioxopiperidin-3-yl)isoindolin-1,3-dione], half-maximal degradation (DC50) was put at 5.27 µM.

The compound `CC(C)(c1ccc(OCCCN2CCN(CC3CCN(CCCNc4ccc5c(c4)C(=O)N(C4CCC(=O)NC4=O)C5=O)CC3)CC2)cc1)c1ccc(OCc2ccnc(NS(C)(=O)=O)n2)cc1` (stereo not drawn) [Example 29, N-(4-((4-(2-(4-(3-(4-((1-(3-((2-(2,6-dioxopiperidin-3-yl)-1,3-dioxoisoindolin-5-yl)amino)propyl)piperidin-4-yl)methyl)piperazin-1-yl)propoxy)phenyl)propan-2-yl)phenoxy)methyl)pyrimidin-2-yl)methanesulfonamide] showed a DC50 of 6.33 µM. The DC50 values of the last two compounds are within 1.5-fold of each other.

As for `CC(C)(c1ccc(OCCCCCCCCN2CC3(C2)CN(c2ccc4c(c2)C(=O)N(C2CCC(=O)NC2=O)C4=O)C3)cc1)c1ccc(OCc2ccnc(NS(C)(=O)=O)n2)cc1` (stereo not drawn) [Example 30, N-(4-((4-(2-(4-((8-(6-(2-(2,6-dioxopiperidin-3-yl)-1,3-dioxoisoindolin-5-yl)-2,6-diazaspiro[3.3]heptan-2-yl)octyl)oxy)phenyl)propan-2-yl)phenoxy)methyl)pyrimidin-2-yl)methanesulfonamide], the DC50 is above 10 µM.

Compound `CC(C)(c1ccc(OCCCCCCCCOCCCCNc2ccc3c(c2)C(=O)N(C2CCC(=O)NC2=O)C3=O)cc1)c1ccc(OCc2cncc(NS(C)(=O)=O)n2)cc1` (stereo not drawn) [Example 31, N-(6-((4-(2-(4-((8-(4-((2-(2,6-dioxopiperidin-3-yl)-1,3-dioxoisoindolin-5-yl)amino)butoxy)octyl)oxy)phenyl)propan-2-yl)phenoxy)methyl)pyrazin-2-yl)methanesulfonamide] returned a DC50 above 10 µM.

`CC(C)(c1ccc(OCCCCCCCCOCCCCNc2ccc3c(c2)C(=O)N(C2CCC(=O)NC2=O)C3=O)cc1)c1ccc(OCc2nccc(NS(C)(=O)=O)n2)cc1` (stereo not drawn) [Example 32, N-(2-((4-(2-(4-((8-(4-((2-(2,6-dioxopiperidin-3-yl)-1,3-dioxoisoindolin-5-yl)amino)butoxy)octyl)oxy)phenyl)propan-2-yl)phenoxy)methyl)pyrimidin-4-yl)methanesulfonamide] gave a 50% degradation concentration (DC50) above 10 µM.

The compound `CC(C)(c1ccc(OCc2ccnc(NS(C)(=O)=O)n2)cc1)c1ccc(OC2CCN(c3ccc4c(c3)C(=O)N(C3CCC(=O)NC3=O)C4=O)CC2)cc1` (stereo not drawn) [Example 34, N-(4-((4-(2-(4-((1-(2-(2,6-dioxopiperidin-3-yl)-1,3-dioxoisoindolin-yl)piperidin-4-yl)oxy)phenyl)propan-2-yl)phenoxy)methyl)pyrimidin-2-yl)methanesulfonamide] came in with a DC50 above 10 µM.

The compound `CC(C)(c1ccc(OCc2ccnc(NS(C)(=O)=O)n2)cc1)c1ccc(OC2CCN(c3cccc4c3C(=O)N(C3CCC(=O)NC3=O)C4=O)CC2)cc1` (stereo not drawn) [Example 35, N-(4-((4-(2-(4-((1-(2-(2,6-dioxopiperidin-3-yl)-1,3-dioxoisoindolin-4-yl)piperidin-4-yl)oxy)phenyl)propan-2-yl)phenoxy)methyl)pyrimidin-2-yl)methanesulfonamide] returned a DC50 above 10 µM.

Compound `CC(C)(c1ccc(OCc2ccnc(NS(C)(=O)=O)n2)cc1)c1ccc(OC2CCN(CCCCOCCCCNc3ccc4c(c3)C(=O)N(C3CCC(=O)NC3=O)C4=O)CC2)cc1` (stereo not drawn) [Example 36, N-(4-((4-(2-(4-((1-(4-(4-(4-)((2-(2,6-dioxopiperidin-3-yl)-1,3-dioxoisoindolin-5-yl)amino)butoxy)butyl)piperidin-4-yl)oxy)phenyl)propan-2-yl)phenoxy)methyl)pyrimidin-2-yl)methanesulfonamide] came in with a half-maximal degradation concentration (DC50) above 10 µM.
